# Patent US9802960B2 (MILLENNIUM PHARMACEUTICALS, INC., priority 2014, dated 2017)
# Target: Human VPS34 (Homo sapiens (Human), UniProt Q8NEB9)
# Test: Human VPS34 enzyme assay (Adapta TR-FRET)
# Format: biochemical
# Conditions: compound concentration 1.11 μM; read-out: Percent Inhibition
# Sequence of Human VPS34 (Q8NEB9 whole entry): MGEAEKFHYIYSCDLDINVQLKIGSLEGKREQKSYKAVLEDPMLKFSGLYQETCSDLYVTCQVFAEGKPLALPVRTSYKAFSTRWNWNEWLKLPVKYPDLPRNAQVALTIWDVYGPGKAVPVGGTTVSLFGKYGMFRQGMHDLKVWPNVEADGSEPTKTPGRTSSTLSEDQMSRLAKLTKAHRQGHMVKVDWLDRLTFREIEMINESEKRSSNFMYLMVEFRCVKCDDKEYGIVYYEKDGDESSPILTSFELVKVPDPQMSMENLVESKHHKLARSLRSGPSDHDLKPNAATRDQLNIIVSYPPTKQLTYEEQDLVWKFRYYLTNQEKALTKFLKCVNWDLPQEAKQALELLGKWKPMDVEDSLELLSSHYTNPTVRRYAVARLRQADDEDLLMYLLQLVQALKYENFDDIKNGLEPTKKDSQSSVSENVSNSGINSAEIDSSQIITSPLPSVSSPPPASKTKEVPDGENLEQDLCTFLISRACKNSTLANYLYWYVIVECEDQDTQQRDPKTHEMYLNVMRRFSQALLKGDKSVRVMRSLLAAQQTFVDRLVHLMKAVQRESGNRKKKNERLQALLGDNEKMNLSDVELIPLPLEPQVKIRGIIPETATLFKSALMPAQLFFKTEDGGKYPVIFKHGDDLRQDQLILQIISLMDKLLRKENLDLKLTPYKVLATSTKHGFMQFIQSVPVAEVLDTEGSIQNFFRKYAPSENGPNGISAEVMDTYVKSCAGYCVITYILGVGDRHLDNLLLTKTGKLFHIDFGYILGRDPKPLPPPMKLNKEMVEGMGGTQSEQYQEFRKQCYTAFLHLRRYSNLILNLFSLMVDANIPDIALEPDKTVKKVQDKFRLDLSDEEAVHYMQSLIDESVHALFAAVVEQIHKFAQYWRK
row,Structure (SMILES),inhibition at 1.11 µM [%]
1,"CCCCN(CCCC)S(=O)(=O)Nc1cc(-c2ccnc(NC(C)=O)c2)cnc1C [Compound I-350, N-{5-[(dibutylsulfamoyl)amino]-6-methyl-3,4′-bipyridin-2′-yl}acetamide]",> 99
2,"CC(=O)Nc1cc(-c2cnc(C)c(N3CCNS3(=O)=O)c2)ccn1 [Compound I-352, N-[5-(1,1-dioxido-1,2,5-thiadiazolidin-2-yl)-6-methyl-3,4′-bipyridin-2′-yl]acetamide]",92
3,"Cc1c(-c2ccnc(Nc3ccnc(C4CC4)n3)c2)cnc(Cl)c1N [Compound I-355, 6-chloro-N~2~′-(2-cyclopropylpyrimidin-4-yl)-4-methyl-3,4′-bipyridine-2′,5-diamine]",91
4,"CC(=O)Nc1cc(-c2cnc(C)c(N3CC(NCc4ccccc4)CS3(=O)=O)c2)ccn1 (stereo not shown) [Compound I-357, N-{5-[4-(benzylamino)-1,1-dioxidoisothiazolidin-2-yl]-6-methyl-3,4′-bipyridin-2′-yl}acetamide]",> 99
5,"Cc1c(-c2ccnc(Nc3ccnc(C4CC4)n3)c2)cnc(Cl)c1C(=O)N1CCC1 [Compound I-361, azetidin-1-yl(6-chloro-2′-((2-cyclopropylpyrimidin-4-yl)amino)-4-methyl-[3,4′-bipyridin]-5-yl)methanone]",90
6,"Cc1nccc(Nc2cc(-c3cnc(C)c(OCc4ccccc4)c3)ccn2)n1 [Compound I-363, 5-(benzyloxy)-6-methyl-N-(2-methylpyrimidin-4-yl)-3,4′-bipyridin-2′-amine]",83
7,"CCOC(=O)Nc1cc(-c2cnc(C)c(NS(=O)(=O)N(C)C)c2)ccn1 [Compound I-364, ethyl {5-[(dimethylsulfamoyl)amino]-6-methyl-3,4′-bipyridin-2′-yl}carbamate]",> 99
8,"CC(=O)Nc1cc(-c2cncc(S(=O)(=O)N(C)c3ccccc3)c2)ccn1 [Compound I-365, N-{5-[methyl(phenyl)sulfamoyl]-3,4′-bipyridin-2′-yl}acetamide]",> 99
9,"CCNC(=O)Nc1cc(-c2ccnc(Nc3ccnc(C)n3)c2)cnc1C [Compound I-367, 1-ethyl-3-{6-methyl-2′-[(2-methylpyrimidin-4-yl)amino]-3,4′-bipyridin-5-yl}urea]",76

# More lines, now with the values ahead:
row,inhibition at 1.11 µM [%],Structure (SMILES)
1,> 99,"CC(=O)Nc1cc(-c2cnc(C)c(S(=O)(=O)Nc3ccc(F)cc3F)c2)ccn1 [Compound I-353, N-(5-(N-(2,4-difluorophenyl)sulfamoyl)-6-methyl-[3,4′-bipyridin]-2′-yl)acetamide]"
2,98,"CC(=O)Nc1cc(-c2cnc(Cl)c(NS(=O)(=O)c3c(Cl)cccc3Cl)c2C)ccn1 [Compound I-354, N-(6-chloro-5-{[(2,6-dichlorophenyl)sulfonyl]amino}-4-methyl-3,4′-bipyridin-2′-yl)acetamide]"
3,> 99,"CC(=O)Nc1cc(-c2cnc(C)c(NS(=O)(=O)c3ccc(C#N)cc3F)c2)ccn1 [Compound I-356, N-(5-{[(4-cyano-2-fluorophenyl)sulfonyl]amino}-6-methyl-3,4′-bipyridin-2′-yl)acetamide]"
4,> 99,"COc1ncc(-c2ccnc(NC(C)=O)c2)cc1S(=O)(=O)Nc1cc(F)ccc1F [Compound I-358, N-{5-[(2,5-difluorophenyl)sulfamoyl]-6-methoxy-3,4′-bipyridin-2′-yl}acetamide]"
5,> 99,"CC(=O)Nc1cc(-c2cnc(C)c(OS(=O)(=O)N(C)C)c2)ccn1 [Compound I-359, 2′-acetamido-6-methyl-3,4′-bipyridin-5-yl dimethylsulfamate]"
6,95,"CC(=O)Nc1cc(-c2cnc(Cl)c(NS(=O)(=O)c3ccc(C#N)cc3Cl)c2C)ccn1 [Compound I-362, N-(6-chloro-5-{[(2-chloro-4-cyanophenyl)sulfonyl]amino}-4-methyl-3,4′-bipyridin-2′-yl)acetamide]"
7,> 99,"CC(=O)Nc1cc(-c2cnc(Cl)c(S(=O)(=O)NC34CC(C3)C4)c2)ccn1 [Compound I-366, N-[5-(bicyclo[1.1.1]pent-1-ylsulfamoyl)-6-chloro-3,4′-bipyridin-2′-yl]acetamide]"
